Values of other authors, collected in patent US20220288273A1, “OSTEOINDUCTIVE MODIFIED GELATIN HYDROGELS AND METHODS OF MAKING AND USING THE SAME” (THE REGENTS OF THE UNIVERSITY OF CALIFORNIA, priority 2019, published 2022).

SMILES: CC(C)(O)C(=O)c1ccc(OCCO)cc1 [Irgacure-2959, 2-Hydroxy-4′-(2-hydroxyethoxy)-2-methylpropiophenone]
- water solubility: low water solubility

SMILES: Cc1cc(C)c(C(=O)P(=O)([O-])c2ccccc2)c(C)c1.[Li+] [LAP, Lithium phenyl-2,4,6-trimethylbenzoylphosphinate]
- water solubility: high water solubility
